molecular target: IDH1 R132H (Homo sapiens, UniProt O75874, R132H); assay: Assay for IDH1 R132H inhibitors (NADPH/aKG, resazurin detection); assay type: biochemical; settings: Table 3; enzyme assay, 50 minutes at room temperature; read-out: IC50 (IDH1 R132H Inhibition)
Summary of the method: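 Compound added to substrate mix (8 uM NADPH, 2 mM aKG), then enzyme mix (0.2 μg/ml IDH1 R132H); 50 min RT in 20 mM Tris pH 7.5, 150 mM NaCl, 10 mM MgCl2, 0.03% BSA. Resazurin detection mix (30 μM) 5 min RT; resorufin fluorescence Ex544/Em590.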

Chain of IDH1 R132H (O75874 whole entry R132H): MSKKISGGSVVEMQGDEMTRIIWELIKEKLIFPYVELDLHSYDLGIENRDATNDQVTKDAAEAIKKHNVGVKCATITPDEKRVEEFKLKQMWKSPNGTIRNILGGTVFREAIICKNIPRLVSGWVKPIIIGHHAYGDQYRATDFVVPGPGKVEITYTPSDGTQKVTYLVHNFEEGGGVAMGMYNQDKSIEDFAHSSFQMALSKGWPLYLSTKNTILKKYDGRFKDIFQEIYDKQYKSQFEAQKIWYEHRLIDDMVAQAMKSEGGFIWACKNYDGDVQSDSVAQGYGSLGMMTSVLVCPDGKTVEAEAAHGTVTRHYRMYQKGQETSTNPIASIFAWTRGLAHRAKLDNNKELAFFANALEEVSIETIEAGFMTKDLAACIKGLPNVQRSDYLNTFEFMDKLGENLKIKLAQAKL

IC50 [nM] | Compound
≤ 1000 | COCCC(=O)N1CCN(c2nc(C3CC3)c(-c3ccc(F)cc3F)c(C)c2C#N)C[C@H]1C [Compound 256, 6-cyclopropyl-5-(2,4-difluorophenyl)-2-((R)-4-(3-methoxypropanoyl)-3-methylpiperazin-1-yl)-4-methyl-nicotinonitrile]
5000 to 15000 | CC(C)c1cc(-c2ccccc2)c(C#N)c(N2CCN(C(=O)c3ccoc3)CC2c2ccccc2)n1 (stereo not drawn) [Compound 160, 2-(4-(furan-3-carbonyl)-2-phenylpiperazin-1-yl)-6-isopropyl-4-phenylnicotinonitrile]
1000 to 5000 | CC(C)c1cc(-c2cccc(F)c2)c(C#N)c(N2CCN(C(=O)c3ccoc3)CC2)n1 [Compound 115, 4-(3-fluorophenyl)-2-(4-(furan-3-carbonyl)piperazin-1-yl)-6-isopropylnicotinonitrile]
≤ 1000 | COCCC(=O)N1CCN(c2nc(C3CC3)c(-c3ccc(OC)nc3)cc2C#N)C[C@H]1C [Compound 252, (R)-2-cyclopropyl-6′-methoxy-6-(4-(3-methoxypropanoyl)-3-methylpiperazin-1-yl)-3,3′-bipyridine-5-carbonitrile]
≤ 1000 | COCCC(=O)N1CCN(c2nc(C3CC3)c(-c3ccc(C(F)(F)F)cc3)cc2C#N)C[C@H]1C [Compound 226, (R)-6-cyclopropyl-2-(4-(3-methoxypropanoyl)-3-methylpiperazin-1-yl)-5-(4-(trifluoromethyl)phenyl)nicotinonitrile]
≤ 1000 | COCCC(=O)N1CCN(c2nc(C3CC3)c(-c3cccc(F)c3)c(C)c2C#N)C[C@H]1C [Compound 257, (R)-6-cyclopropyl-5-(3-fluorophenyl)-2-(4-(3-methoxypropanoyl)-3-methylpiperazin-1-yl)-4-methylnicotinonitrile]
1000 to 5000 | COCCC(=O)N1CCN(c2nc(C(C)C)c(-c3ccc(C)cc3)cc2C#N)C[C@H]1C [Compound 198, (R)-6-isopropyl-2-(4-(3-methoxypropanoyl)-3-methylpiperazin-1-yl)-5-p-tolylnicotinonitrile]
5000 to 15000 | CC(C)c1cc(-c2ccccc2)nc(N2CCN(C(=O)c3ccco3)C(C)C2)c1C#N (stereo not drawn) [Compound 108, 2-(4-(furan-2-carbonyl)-3-methylpiperazin-1-yl)-4-isopropyl-6-phenylnicotinonitrile]
1000 to 5000 | CC(C)c1cc(-c2ccccc2)c(C#N)c(N2CCN(C(=O)c3ccoc3)[C@@H](C)C2)n1 [Compound 132, (S)-2-(4-(furan-3-carbonyl)-3-methylpiperazin-1-yl)-6-isopropyl-4-phenylnicotinonitrile]
5000 to 15000 | CC(C)c1nc(N2CCN(C(=O)c3ccoc3)CC2c2ccccc2)c(C#N)cc1-c1ccccc1 (stereo not drawn) [Compound 159, 2-(4-(furan-3-carbonyl)-2-phenylpiperazin-1-yl)-6-isopropyl-5-phenylnicotinonitrile]
1000 to 5000 | COCCC(=O)N1CCN(c2nc(C(C)C)c(-c3ccc(F)cc3)cc2C(=O)OC)C[C@H]1C [Compound 244, (R)-methyl 5-(4-fluorophenyl)-6-isopropyl-2-(4-(3-methoxypropanoyl)-3-methylpiperazin-1-yl)nicotinate]
≤ 1000 | COCCC(=O)N1CCN(c2nc(C3CC3)c(-c3cccc(C)c3)c(C)c2C#N)C[C@H]1C [Compound 243, (R)-6-cyclopropyl-2-(4-(3-methoxypropanoyl)-3-methylpiperazin-1-yl)-4-methyl-5-m-tolylnicotinonitrile]
≤ 1000 | COCCC(=O)N1CCN(c2nc(C(C)C)c(-c3ccc4c(c3)OCO4)cc2C#N)C[C@H]1C [Compound 224, (R)-5-(benzo[d][1,3]dioxol-5-yl)-6-isopropyl-2-(4-(3-methoxypropanoyl)-3-methylpiperazin-1-yl)nicotinonitrile]
1000 to 5000 | COCCC(=O)N1CCN(c2nc(C(C)C)c(-c3ccoc3)cc2C#N)C[C@H]1C [Compound 205, (R)-5-(furan-3-yl)-6-isopropyl-2-(4-(3-methoxypropanoyl)-3-methylpiperazin-1-yl)nicotinonitrile]
1000 to 5000 | Cc1ccccc1-c1cc(C(C)C)nc(N2CCN(C(=O)c3ccoc3)[C@H](C)C2)c1C#N [Compound 158]
1000 to 5000 | CC(C)c1nc(N2CCN(C(=O)Cc3cccs3)[C@H](C)C2)c(C#N)cc1-c1ccccc1 [Compound 165, (R)-6-isopropyl-2-(3-methyl-4-(2-(thiophen-2-yl)acetyl)piperazin-1-yl)-5-phenylnicotinonitrile]

same assay, conditions: enzyme assay of Example 12; read-out: IDH1R132H IC50

Compound | IC50 [nM]
N#Cc1cc(-c2cccc3cnccc23)c(C2CC2)nc1N1CCN(C(=O)C2CC2)C(CC(F)(F)F)C1 (stereo not drawn) [Compound 423, 2-(4-(cyclopropanecarbonyl)-3-(2,2,2-trifluoroethyl)piperazin-1-yl)-6-cyclopropyl-5-(isoquinolin-5-yl)nicotinonitrile] | 500 to 1000
COCCC(=O)N1CCN(c2nc(C3CC3)c(-c3ccccc3COC)c(C)c2C#N)C[C@H]1C [Compound 348, (R)-6-cyclopropyl-5-(2-methoxymethyl-phenyl)-2-[4-(3-methoxy-propionyl)-3-methyl-piperazin-1-yl]-4-methyl-nicotinonitrile] | < 500
COCCC(=O)N1CCN(c2nc(C3CC3)c(OC(C)c3ccc(Cl)cc3)cc2C#N)C[C@H]1C (stereo partly drawn) [Compound 311, 5-(1-(4-chlorophenyl)ethoxy)-6-cyclopropyl-2-((R)-4-(3-methoxypropanoyl)-3-methylpiperazin-1-yl)nicotinonitrile] | 500 to 1000
CNc1cccc(-c2cc(C#N)c(N3CCN(C(=O)CCOC)[C@H](C)C3)nc2C2CC2)c1 [Compound 414, (R)-6-cyclopropyl-2-(4-(3-methoxypropanoyl)-3-methylpiperazin-1-yl)-5-(3-(methylamino)phenyl)nicotinonitrile] | 500 to 1000
N#Cc1cc(-c2cccc3cnccc23)c(C2CC2)nc1N1CCN(C(=O)C2CC2)C(C(F)(F)F)C1 (stereo not drawn) [Compound 397, 2-(4-(cyclopropanecarbonyl)-3-(trifluoromethyl)piperazin-1-yl)-6-cyclopropyl-5-(isoquinolin-5-yl)nicotinonitrile] | < 500
COCCC(=O)N1CCN(c2nc(C3CC3)c(-c3ccnn3C)c(C)c2C#N)C[C@H]1C [Compound 349, (R)-6-cyclopropyl-2-[4-(3-methoxy-propionyl)-3-methyl-piperazin-1-yl]-4-methyl-5-(2-methyl-2H-pyrazol-3-yl)-nicotinonitrile] | 500 to 1000
COCCC(=O)N1CCN(c2nc(C3CC3)c(-c3ccc(N4CCNCC4)nc3)cc2C#N)C[C@H]1C [Compound 396, (R)-2-cyclopropyl-6-[4-(3-methoxy-propionyl)-3-methyl-piperazin-1-yl]-6′-piperazin-1-yl-[3,3′]bipyridinyl-5-carbonitrile] | < 500

Other lines, results leading:

IC50 [nM] | Compound
500 to 1000 | C[C@@H]1CN(c2nc(C3CC3)c(-c3ccc4ncoc4c3)cc2C#N)CCN1C(=O)C1CC1 [Compound 467, (R)-5-(benzo[d]oxazol-6-yl)-2-(4-(cyclopropanecarbonyl)-3-methylpiperazin-1-yl)-6-cyclopropylnicotinonitrile]
< 500 | N#Cc1cc(-c2cccc3nccnc23)c(C2CC2)nc1N1CCN(C(=O)CC(F)(F)F)[C@H](C2CC2)C1 [Compound 532, (R)-6-cyclopropyl-2-(3-cyclopropyl-4-(3,3,3-trifluoropropanoyl)piperazin-1-yl)-5-(quinoxalin-5-yl)nicotinonitrile]
< 500 | C=Cc1cc(-c2c(C3CC3)nc(N3CCN(C(=O)CCCCC)[C@H](C4CC4)C3)c(C#N)c2C)ccn1 [Compound 827, (R)-2-cyclopropyl-6-(3-cyclopropyl-4-hexanoylpiperazin-1-yl)-4-methyl-2′-vinyl-3,4′-bipyridine-5-carbonitrile]
< 500 | N#Cc1cc(-c2cc(CCN)nc(N)n2)c(C2CC2)nc1N1CCN(C(=O)C2CC2)[C@H](C2CC2)C1 [Compound 701, (R)-5-(2-amino-6-(2-aminoethyl)pyrimidin-4-yl)-2-(4-(cyclopropanecarbonyl)-3-cyclopropylpiperazin-1-yl)-6-cyclopropylnicotinonitrile]
500 to 1000 | N#Cc1cc(-c2ccc(C(F)(F)F)nc2)c(C2CC2)nc1N1CCN(C(=O)C2CC2)[C@H](C2CC2)C1 [Compound 567, (R)-6-(4-(cyclopropanecarbonyl)-3-cyclopropylpiperazin-1-yl)-2-cyclopropyl-6′-(trifluoromethyl)-[3,3′-bipyridine]-5-carbonitrile]
500 to 1000 | N#Cc1cc(-c2cc(Cl)nc3ccccc23)c(C2CC2)nc1N1CCN(C(=O)C2CC2)[C@H](C2CC2)C1 [Compound 543, (R)-5-(2-chloroquinolin-4-yl)-2-(4-(cyclopropanecarbonyl)-3-cyclopropylpiperazin-1-yl)-6-cyclopropylnicotinonitrile]
< 500 | N#Cc1cc(-c2ccc3[nH]ncc3c2)c(C2CC2)nc1N1CCN(C(=O)CC(F)(F)F)[C@H](C2CC2)C1 [Compound 552]
500 to 1000 | CN(C)c1nccc(-c2cc(C#N)c(N3CCN(C(=O)C4CC4)[C@H](C4CC4)C3)nc2C2CC2)n1 [Compound 506, (R)-2-(4-(cyclopropanecarbonyl)-3-cyclopropylpiperazin-1-yl)-6-cyclopropyl-5-(2-(dimethylamino)pyrimidin-4-yl)nicotinonitrile]
< 500 | N#Cc1cc(-c2cccnc2)c(C2CC2)nc1N1CCN(C(=O)CC(F)(F)F)[C@H](C2CC2)C1 [Compound 524, (R)-2-cyclopropyl-6-(3-cyclopropyl-4-(3,3,3-trifluoropropanoyl)piperazin-1-yl)-[3,3′-bipyridine]-5-carbonitrile]
< 500 | N#Cc1cc(-c2cnnc(O)c2)c(C2CC2)nc1N1CCN(C(=O)CCO)[C@H](C2CC2)C1 [Compound 671, (R)-6-cyclopropyl-2-(3-cyclopropyl-4-(3-hydroxypropanoyl)piperazin-1-yl)-5-(6-hydroxypyridazin-4-yl)nicotinonitrile]

From US9856279B2 (AGIOS PHARMACEUTICALS, INC, priority 2011, dated 2018)
